Data reported in patent US20060009478A1, “Methods for the treatment of back pain” (priority 2003, published 2006).

System: patients with moderate to severe chronic low back pain
Assay: Pain intensity (daily diary, 11-point numerical scale), low back pain study with titration and 12-week fixed-dose period
Type: in vivo, human
Conditions: LOCF, ITT
Method: A multicenter, randomized, double-blind, active- and placebo-controlled study was designed and conducted.
In addition, adverse events and opioid-related adverse events were to be recorded in the daily diary.
For the pain intensity (PI) scale assessment, the patient was prompted with the question “How would you rate your overall pain intensity at this time?” and the PI score was recorded in the clinic at the Screening and Baseline Visits. Pain intensity was also assessed by prompting the patient with the questions “How would you rate your overall pain intensity during the past 24 hours?” and a daily PI diary score was recorded at bedtime. For both Pain Intensity prompts, the response was scored on an 11-point numerical scale (0=no pain and 10=severe pain).
The baseline average daily pain intensity score for each patient was calculated as the average of the daily bedtime pain intensity scores recorded during the 3 days immediately prior to baseline/start of titration period visit. The post-baseline average daily pain intensity scores were calculated as the average of the daily bedtime pain intensity scores recorded during the last 3 days of dosing prior to each visit. Missing data was imputed using the last-observation-carried-forward (LOCF) approach for efficacy variables in the fixed-dose period. If the first visit in the fixed-dose period was missing, the last value in the titration period was imputed forward. Unless indicated, all testing of statistical significance was two-sided, and a difference resulting in a p-value of equal to or less than 0.05 was considered statistically significant.
A primary efficacy endpoint was the percent change from baseline to the end of the fixed-dose period (Week 12) in average daily pain intensity. The percent change from baseline was calculated as [PI(baseline)−PI(fixed-dose)]/PI(baseline)*100. Data was summarized descriptively by treatment group. An analysis of covariance (ANCOVA) model including treatment and center as effects and baseline pain intensity as the covariate was used for global and pairwise inferences. Separate models were used to evaluate both the treatment by center and treatment by baseline pain intensity interaction terms.
A primary comparison of interest was oxycodone and naltrexone (e.g., BID or QID) versus oxycodone (e.g., QID). Secondary analyses included actual and percent change from baseline values of daily pain index, SF-12, and Oswestry disability index summarized descriptively by treatment group for both the titration and fixed-dose periods. Treatments were compared globally and in pairwise fashion at each visit in the fixed-dose period using an ANCOVA model that included treatment and center as effects and baseline pain intensity as the covariate. Separate models were used to evaluate both the treatment by center and treatment by baseline pain intensity interaction terms.

COc1ccc2c3c1O[C@H]1C(=O)CC[C@@]4(O)[C@@H](C2)N(C)CC[C@]314 [OXY QID, oxycodone]
Pain intensity actual value at fixed dose week 7, maximum (fixed dose week 7): 10.0
Pain intensity actual value at fixed dose week 7, mean (SD) (fixed dose week 7): 4.0 (2.54)
Pain intensity actual value at fixed dose week 7, median (fixed dose week 7): 3.3
Pain intensity actual value at fixed dose week 7, minimum (fixed dose week 7): 0.0
Pain intensity change from baseline to fixed dose week 7, maximum (fixed dose week 7): 3.0
Pain intensity change from baseline to fixed dose week 7, mean (SD) (fixed dose week 7): −3.6 (2.69)
Pain intensity change from baseline to fixed dose week 7, median (fixed dose week 7): −4.0
Pain intensity change from baseline to fixed dose week 7, minimum (fixed dose week 7): −9.7
Pain intensity percent change from baseline to fixed dose week 7, maximum (fixed dose week 7): 42.9%
Pain intensity percent change from baseline to fixed dose week 7, mean (SD) (fixed dose week 7): −46.8 (34.05) %
Pain intensity percent change from baseline to fixed dose week 7, median (fixed dose week 7): −52.9%
Pain intensity percent change from baseline to fixed dose week 7, minimum (fixed dose week 7): −100.0%
Pain intensity actual value at fixed dose week 8, maximum (fixed dose week 8): 10.0
Pain intensity actual value at fixed dose week 8, mean (SD) (fixed dose week 8): 4.0 (2.57)
Pain intensity actual value at fixed dose week 8, median (fixed dose week 8): 3.3
Pain intensity actual value at fixed dose week 8, minimum (fixed dose week 8): 0.0
Pain intensity change from baseline to fixed dose week 8, maximum (fixed dose week 8): 3.0
Pain intensity change from baseline to fixed dose week 8, mean (SD) (fixed dose week 8): −3.6 (2.67)
Pain intensity change from baseline to fixed dose week 8, median (fixed dose week 8): −3.7
Pain intensity change from baseline to fixed dose week 8, minimum (fixed dose week 8): −9.7
Pain intensity percent change from baseline to fixed dose week 8, maximum (fixed dose week 8): 42.9%
Pain intensity percent change from baseline to fixed dose week 8, mean (SD) (fixed dose week 8): −46.5 (34.05) %
Pain intensity percent change from baseline to fixed dose week 8, median (fixed dose week 8): −52.4%
Pain intensity percent change from baseline to fixed dose week 8, minimum (fixed dose week 8): −100.0%
Pain intensity actual value at fixed dose week 9, maximum (fixed dose week 9): 10.0
Pain intensity actual value at fixed dose week 9, mean (SD) (fixed dose week 9): 3.9 (2.57)
Pain intensity actual value at fixed dose week 9, median (fixed dose week 9): 3.3
Pain intensity actual value at fixed dose week 9, minimum (fixed dose week 9): 0.0
Pain intensity change from baseline to fixed dose week 9, maximum (fixed dose week 9): 3.0
Pain intensity change from baseline to fixed dose week 9, mean (SD) (fixed dose week 9): −3.6 (2.70)
Pain intensity change from baseline to fixed dose week 9, median (fixed dose week 9): −4.0
Pain intensity change from baseline to fixed dose week 9, minimum (fixed dose week 9): −9.7
Pain intensity percent change from baseline to fixed dose week 9, maximum (fixed dose week 9): 42.9%
Pain intensity percent change from baseline to fixed dose week 9, mean (SD) (fixed dose week 9): −47.4 (34.17) %
Pain intensity percent change from baseline to fixed dose week 9, median (fixed dose week 9): −53.3%
Pain intensity percent change from baseline to fixed dose week 9, minimum (fixed dose week 9): −100.0%
Pain intensity actual value at fixed dose week 10, maximum (fixed dose week 10): 10.0
Pain intensity actual value at fixed dose week 10, mean (SD) (fixed dose week 10): 4.0 (2.54)
Pain intensity actual value at fixed dose week 10, median (fixed dose week 10): 3.7
Pain intensity actual value at fixed dose week 10, minimum (fixed dose week 10): 0.0
Pain intensity change from baseline to fixed dose week 10, maximum (fixed dose week 10): 3.0
Pain intensity change from baseline to fixed dose week 10, mean (SD) (fixed dose week 10): −3.6 (2.66)
Pain intensity change from baseline to fixed dose week 10, median (fixed dose week 10): −3.7
Pain intensity change from baseline to fixed dose week 10, minimum (fixed dose week 10): −9.7
Pain intensity percent change from baseline to fixed dose week 10, maximum (fixed dose week 10): 42.9%
Pain intensity percent change from baseline to fixed dose week 10, mean (SD) (fixed dose week 10): −46.8 (33.72) %
Pain intensity percent change from baseline to fixed dose week 10, median (fixed dose week 10): −52.0%
Pain intensity percent change from baseline to fixed dose week 10, minimum (fixed dose week 10): −100.0%
Pain intensity actual value at fixed dose week 11, maximum (fixed dose week 11): 10.0
Pain intensity actual value at fixed dose week 11, mean (SD) (fixed dose week 11): 3.9 (2.57)
Pain intensity actual value at fixed dose week 11, median (fixed dose week 11): 3.3
Pain intensity actual value at fixed dose week 11, minimum (fixed dose week 11): 0.0
Pain intensity change from baseline to fixed dose week 11, maximum (fixed dose week 11): 3.0
Pain intensity change from baseline to fixed dose week 11, mean (SD) (fixed dose week 11): −3.7 (2.70)
Pain intensity change from baseline to fixed dose week 11, median (fixed dose week 11): −4.0
Pain intensity change from baseline to fixed dose week 11, minimum (fixed dose week 11): −9.7
Pain intensity percent change from baseline to fixed dose week 11, maximum (fixed dose week 11): 42.9%
Pain intensity percent change from baseline to fixed dose week 11, mean (SD) (fixed dose week 11): −48.2 (34.19) %
Pain intensity percent change from baseline to fixed dose week 11, median (fixed dose week 11): −55.6%
Pain intensity percent change from baseline to fixed dose week 11, minimum (fixed dose week 11): −100.0%
Pain intensity actual value at fixed dose week 12, maximum (fixed dose week 12): 10.0
Pain intensity actual value at fixed dose week 12, mean (SD) (fixed dose week 12): 4.0 (2.53)
Pain intensity actual value at fixed dose week 12, median (fixed dose week 12): 3.7
Pain intensity actual value at fixed dose week 12, minimum (fixed dose week 12): 0.0
Pain intensity change from baseline to fixed dose week 12, maximum (fixed dose week 12): 3.0
Pain intensity change from baseline to fixed dose week 12, mean (SD) (fixed dose week 12): −3.5 (2.65)
Pain intensity change from baseline to fixed dose week 12, median (fixed dose week 12): −3.7
Pain intensity change from baseline to fixed dose week 12, minimum (fixed dose week 12): −9.7
Pain intensity percent change from baseline to fixed dose week 12, maximum (fixed dose week 12): 42.9%
Pain intensity percent change from baseline to fixed dose week 12, mean (SD) (fixed dose week 12): −46.2 (33.60) %
Pain intensity percent change from baseline to fixed dose week 12, median (fixed dose week 12): −52.0%
Pain intensity percent change from baseline to fixed dose week 12, minimum (fixed dose week 12): −100.0%
